Test results: patent publication US11498899B2, “Nitrone herbicides” (FMC Corporation, priority 2016, dated 2022)

How the values were obtained:
rice (Oryza sativa) = experiment: Test B flooded paddy test, visual rating 0-100 (0 no effect, 100 complete control); conditions: Flood, 250 g ai/ha, applied to paddy water, rated after 13 to 15 days
[1] = system: ducksalad (Heteranthera limosa); experiment: Test B flooded paddy test, visual rating 0-100; conditions: Flood, 250 g ai/ha, applied to paddy water, rated after 13 to 15 days
[2] = system: barnyardgrass (Echinochloa crus-galli); experiment: Test A preemergence, visual injury rating 0-100 (0 no effect, 100 complete control); assay type: in vivo
[3] = system: barnyardgrass (Echinochloa crus-galli); experiment: Test B flooded paddy test, visual rating 0-100; conditions: Flood, 250 g ai/ha, applied to paddy water, rated after 13 to 15 days
[4] = system: ragweed (common ragweed, Ambrosia elatior); experiment: Test A preemergence, visual injury rating 0-100; assay type: in vivo
[5] = system: pigweed (Amaranthus retroflexus); experiment: Test A preemergence, visual injury rating 0-100; assay type: in vivo
kochia (Kochia scoparia) [6] = experiment: Test A preemergence, visual injury rating 0-100; assay type: in vivo
[7] = system: ryegrass, Italian (Italian ryegrass, Lolium multiflorum); experiment: Test A preemergence, visual injury rating 0-100; assay type: in vivo; conditions: 500 g ai/ha
[8] = system: foxtail, giant (giant foxtail, Setaria faberii); experiment: Test A preemergence, visual injury rating 0-100; assay type: in vivo
[9] = system: barnyardgrass (Echinochloa crus-galli); experiment: Test A postemergence, visual injury rating 0-100; assay type: in vivo; conditions: 0 to 100 scale
[10] = system: blackgrass (Alopecurus myosuroides); experiment: Test A postemergence, visual injury rating 0-100; assay type: in vivo; conditions: 0 to 100 scale
[11] = system: ragweed (common ragweed, Ambrosia elatior); experiment: Test A postemergence, visual injury rating 0-100; assay type: in vivo; conditions: 0 to 100 scale
[12] = system: wheat (Triticum aestivum); experiment: Test A postemergence, visual injury rating 0-100; assay type: in vivo; conditions: 0 to 100 scale
corn (Zea mays) = experiment: Test A postemergence, visual injury rating 0-100; assay type: in vivo; conditions: 0 to 100 scale
[13] = system: pigweed (Amaranthus retroflexus); experiment: Test A postemergence, visual injury rating 0-100; assay type: in vivo; conditions: 0 to 100 scale
kochia (Kochia scoparia) [14] = experiment: Test A postemergence, visual injury rating 0-100; assay type: in vivo; conditions: 0 to 100 scale
[15] = system: ryegrass, Italian (Italian ryegrass, Lolium multiflorum); experiment: Test A postemergence, visual injury rating 0-100; assay type: in vivo; conditions: 0 to 100 scale
[16] = system: galium (catchweed bedstraw, Galium aparine); experiment: Test A postemergence, visual injury rating 0-100; assay type: in vivo; conditions: 0 to 100 scale
[17] = system: foxtail, giant (giant foxtail, Setaria faberii); experiment: Test A postemergence, visual injury rating 0-100; assay type: in vivo; conditions: 0 to 100 scale

SMILES: CCc1cc(CC)cc(C2CC(C)=[N+]([O-])C2C(=O)Nc2cccc(F)c2F)c1 (racemic) [Compound 109]
- Rice plant response rating (0 to 100 scale) (rice (Oryza sativa)): 0
- Ducksalad plant response rating (0 to 100 scale) [1]: 0
- Barnyardgrass plant response rating (0 to 100 scale) ([2]; 125 g ai/ha): 90
- Barnyardgrass plant response rating (0 to 100 scale) ([2]; 500 g ai/ha): 100
- Barnyardgrass plant response rating (0 to 100 scale) [3]: 0
- Ragweed plant response rating (0 to 100 scale) ([4]; 125 g ai/ha): 0
- Ragweed plant response rating (0 to 100 scale) ([4]; 500 g ai/ha): 30
- Pigweed plant response rating (0 to 100 scale) ([5]; 125 g ai/ha): 0
- Pigweed plant response rating (0 to 100 scale) ([5]; 500 g ai/ha): 0
- Kochia plant response rating (0 to 100 scale) (kochia (Kochia scoparia) [6]; 125 g ai/ha): 0
- Kochia plant response rating (0 to 100 scale) (kochia (Kochia scoparia) [6]; 500 g ai/ha): 50
- Ryegrass, Italian plant response rating (0 to 100 scale) [7]: 100
- Foxtail, Giant plant response rating (0 to 100 scale) ([8]; 125 g ai/ha): 90
- Foxtail, Giant plant response rating (0 to 100 scale) ([8]; 500 g ai/ha): 90
- Barnyardgrass plant response rating ([9]; 125 g ai/ha): 50
- Barnyardgrass plant response rating ([9]; 500 g ai/ha): 80
- Blackgrass plant response rating ([10]; 125 g ai/ha): 80
- Blackgrass plant response rating ([10]; 500 g ai/ha): 90
- Ragweed plant response rating ([11]; 125 g ai/ha): 0
- Ragweed plant response rating ([11]; 500 g ai/ha): 0
- Wheat plant response rating ([12]; 125 g ai/ha): 20
- Wheat plant response rating ([12]; 500 g ai/ha): 80
- Corn plant response rating (corn (Zea mays); 125 g ai/ha): 80
- Corn plant response rating (corn (Zea mays); 500 g ai/ha): 90
- Pigweed plant response rating ([13]; 125 g ai/ha): 0
- Pigweed plant response rating ([13]; 500 g ai/ha): 0
- Kochia plant response rating (kochia (Kochia scoparia) [14]; 125 g ai/ha): 0
- Kochia plant response rating (kochia (Kochia scoparia) [14]; 500 g ai/ha): 0
- Ryegrass, Italian plant response rating ([15]; 125 g ai/ha): 70
- Ryegrass, Italian plant response rating ([15]; 500 g ai/ha): 80
- Galium plant response rating ([16]; 125 g ai/ha): 20
- Galium plant response rating ([16]; 500 g ai/ha): 20
- Foxtail, Giant plant response rating ([17]; 125 g ai/ha): 80
- Foxtail, Giant plant response rating ([17]; 500 g ai/ha): 90

SMILES: CC1=[N+]([O-])C(C(=O)Nc2cccc(F)c2F)C(c2cc(C(F)(F)F)cc(C(F)(F)F)c2)C1 (racemic) [Compound 110]
- Rice plant response rating (0 to 100 scale) (rice (Oryza sativa)): 0
- Ducksalad plant response rating (0 to 100 scale) [1]: 0
- Barnyardgrass plant response rating (0 to 100 scale) ([2]; 125 g ai/ha): 90
- Barnyardgrass plant response rating (0 to 100 scale) ([2]; 500 g ai/ha): 90
- Barnyardgrass plant response rating (0 to 100 scale) [3]: 0
- Ragweed plant response rating (0 to 100 scale) ([4]; 125 g ai/ha): 50
- Ragweed plant response rating (0 to 100 scale) ([4]; 500 g ai/ha): 80
- Pigweed plant response rating (0 to 100 scale) ([5]; 125 g ai/ha): 0
- Pigweed plant response rating (0 to 100 scale) ([5]; 500 g ai/ha): 60
- Kochia plant response rating (0 to 100 scale) (kochia (Kochia scoparia) [6]; 125 g ai/ha): 0
- Kochia plant response rating (0 to 100 scale) (kochia (Kochia scoparia) [6]; 500 g ai/ha): 20
- Ryegrass, Italian plant response rating (0 to 100 scale) [7]: 90
- Foxtail, Giant plant response rating (0 to 100 scale) ([8]; 125 g ai/ha): 90
- Foxtail, Giant plant response rating (0 to 100 scale) ([8]; 500 g ai/ha): 90
- Barnyardgrass plant response rating ([9]; 125 g ai/ha): 40
- Barnyardgrass plant response rating ([9]; 500 g ai/ha): 90
- Blackgrass plant response rating ([10]; 125 g ai/ha): 80
- Blackgrass plant response rating ([10]; 500 g ai/ha): 90
- Ragweed plant response rating ([11]; 125 g ai/ha): 0
- Ragweed plant response rating ([11]; 500 g ai/ha): 70
- Wheat plant response rating ([12]; 125 g ai/ha): 50
- Wheat plant response rating ([12]; 500 g ai/ha): 80
- Corn plant response rating (corn (Zea mays); 125 g ai/ha): 80
- Corn plant response rating (corn (Zea mays); 500 g ai/ha): 90
- Pigweed plant response rating ([13]; 125 g ai/ha): 0
- Pigweed plant response rating ([13]; 500 g ai/ha): 20
- Kochia plant response rating (kochia (Kochia scoparia) [14]; 125 g ai/ha): 0
- Kochia plant response rating (kochia (Kochia scoparia) [14]; 500 g ai/ha): 50
- Ryegrass, Italian plant response rating ([15]; 125 g ai/ha): 70
- Ryegrass, Italian plant response rating ([15]; 500 g ai/ha): 80
- Galium plant response rating ([16]; 125 g ai/ha): 50
- Galium plant response rating ([16]; 500 g ai/ha): 70
- Foxtail, Giant plant response rating ([17]; 125 g ai/ha): 80
- Foxtail, Giant plant response rating ([17]; 500 g ai/ha): 90

SMILES: CC1=[N+]([O-])C(C(=O)Nc2cccc(F)c2F)C(c2cc(C)c(F)c(C)c2)C1 (racemic) [Compound 111]
- Rice plant response rating (0 to 100 scale) (rice (Oryza sativa)): 0
- Ducksalad plant response rating (0 to 100 scale) [1]: 0
- Barnyardgrass plant response rating (0 to 100 scale) ([2]; 125 g ai/ha): 90
- Barnyardgrass plant response rating (0 to 100 scale) ([2]; 500 g ai/ha): 90
- Barnyardgrass plant response rating (0 to 100 scale) [3]: 0
- Ragweed plant response rating (0 to 100 scale) ([4]; 125 g ai/ha): 0
- Ragweed plant response rating (0 to 100 scale) ([4]; 500 g ai/ha): 90
- Pigweed plant response rating (0 to 100 scale) ([5]; 125 g ai/ha): 20
- Pigweed plant response rating (0 to 100 scale) ([5]; 500 g ai/ha): 60
- Kochia plant response rating (0 to 100 scale) (kochia (Kochia scoparia) [6]; 125 g ai/ha): 0
- Kochia plant response rating (0 to 100 scale) (kochia (Kochia scoparia) [6]; 500 g ai/ha): 90
- Ryegrass, Italian plant response rating (0 to 100 scale) [7]: 90
- Foxtail, Giant plant response rating (0 to 100 scale) ([8]; 125 g ai/ha): 90
- Foxtail, Giant plant response rating (0 to 100 scale) ([8]; 500 g ai/ha): 90
- Barnyardgrass plant response rating ([9]; 125 g ai/ha): 70
- Barnyardgrass plant response rating ([9]; 500 g ai/ha): 90
- Blackgrass plant response rating ([10]; 125 g ai/ha): 80
- Blackgrass plant response rating ([10]; 500 g ai/ha): 80
- Ragweed plant response rating ([11]; 125 g ai/ha): 30
- Ragweed plant response rating ([11]; 500 g ai/ha): 70
- Wheat plant response rating ([12]; 125 g ai/ha): 50
- Wheat plant response rating ([12]; 500 g ai/ha): 70
- Corn plant response rating (corn (Zea mays); 125 g ai/ha): 70
- Corn plant response rating (corn (Zea mays); 500 g ai/ha): 90
- Pigweed plant response rating ([13]; 125 g ai/ha): 0
- Pigweed plant response rating ([13]; 500 g ai/ha): 20
- Kochia plant response rating (kochia (Kochia scoparia) [14]; 125 g ai/ha): 0
- Kochia plant response rating (kochia (Kochia scoparia) [14]; 500 g ai/ha): 0
- Ryegrass, Italian plant response rating ([15]; 125 g ai/ha): 40
- Ryegrass, Italian plant response rating ([15]; 500 g ai/ha): 80
- Galium plant response rating ([16]; 125 g ai/ha): 50
- Galium plant response rating ([16]; 500 g ai/ha): 70
- Foxtail, Giant plant response rating ([17]; 125 g ai/ha): 40
- Foxtail, Giant plant response rating ([17]; 500 g ai/ha): 90

SMILES: CC1=[N+]([O-])C(C(=O)Nc2cccc(F)c2F)C(c2cc(C)cc(C)c2)C1 (racemic) [Compound 112]
- Rice plant response rating (0 to 100 scale) (rice (Oryza sativa)): 0
- Ducksalad plant response rating (0 to 100 scale) [1]: 45
- Barnyardgrass plant response rating (0 to 100 scale) ([2]; 125 g ai/ha): 90
- Barnyardgrass plant response rating (0 to 100 scale) ([2]; 500 g ai/ha): 100
- Barnyardgrass plant response rating (0 to 100 scale) [3]: 70
- Ragweed plant response rating (0 to 100 scale) ([4]; 125 g ai/ha): 40
- Ragweed plant response rating (0 to 100 scale) ([4]; 500 g ai/ha): 80
- Pigweed plant response rating (0 to 100 scale) ([5]; 125 g ai/ha): 0
- Pigweed plant response rating (0 to 100 scale) ([5]; 500 g ai/ha): 70
- Kochia plant response rating (0 to 100 scale) (kochia (Kochia scoparia) [6]; 125 g ai/ha): 50
- Kochia plant response rating (0 to 100 scale) (kochia (Kochia scoparia) [6]; 500 g ai/ha): 90
- Ryegrass, Italian plant response rating (0 to 100 scale) [7]: 100
- Foxtail, Giant plant response rating (0 to 100 scale) ([8]; 125 g ai/ha): 90
- Foxtail, Giant plant response rating (0 to 100 scale) ([8]; 500 g ai/ha): 100
- Barnyardgrass plant response rating ([9]; 125 g ai/ha): 70
- Barnyardgrass plant response rating ([9]; 500 g ai/ha): 90
- Blackgrass plant response rating ([10]; 125 g ai/ha): 80
- Blackgrass plant response rating ([10]; 500 g ai/ha): 80
- Ragweed plant response rating ([11]; 125 g ai/ha): 0
- Ragweed plant response rating ([11]; 500 g ai/ha): 60
- Wheat plant response rating ([12]; 125 g ai/ha): 40
- Wheat plant response rating ([12]; 500 g ai/ha): 70
- Corn plant response rating (corn (Zea mays); 125 g ai/ha): 80
- Corn plant response rating (corn (Zea mays); 500 g ai/ha): 90
- Pigweed plant response rating ([13]; 125 g ai/ha): 0
- Pigweed plant response rating ([13]; 500 g ai/ha): 0
- Kochia plant response rating (kochia (Kochia scoparia) [14]; 125 g ai/ha): 0
- Kochia plant response rating (kochia (Kochia scoparia) [14]; 500 g ai/ha): 20
- Ryegrass, Italian plant response rating ([15]; 125 g ai/ha): 40
- Ryegrass, Italian plant response rating ([15]; 500 g ai/ha): 90
- Galium plant response rating ([16]; 125 g ai/ha): 50
- Galium plant response rating ([16]; 500 g ai/ha): 70
- Foxtail, Giant plant response rating ([17]; 125 g ai/ha): 90
- Foxtail, Giant plant response rating ([17]; 500 g ai/ha): 90
